# According to US10442775B2, “Preparation method for eutectic hydrate crystal form II of AHU-377 and diovan trisodium salt” (CRYSTAL PHARMATECH CO., LTD., priority 2015, dated 2019):
# Assay: Crystal form stability on storage (no transformation to other forms)
# Type: physicochemical
# Conditions: 40° C./75% RH; samples packaged in inner double-layered LDPE bags and an outer aluminum foil composite film bag
substance,measurement,value
trisodium AHU-377 and Valsartan co-crystal hydrate Form II,Crystalline form stability (transformation to other forms),will not transform to other forms
